According to patent US10654890B2, “Cyclic peptide derivative, method for preparing same and composition thereof” (priority 2014, dated 2020):

What was measured:
[1] = tested on: human leukemia cells (K562); assay: Cell proliferation test, human leukemia cells; assay type: cell-based; conditions: 2.5 μM and 25 μM, FIG. 10
Description: To see whether or not the astrocyte proliferation accelerating activity of the cyclic peptide derivative is a specific proliferative activity that is limited only to an astrocyte or it is based on a common cell proliferative activity, investigations were made by using normal human dermal fibroblasts (NHDF), human liver cancer cells (HepG2), and human leukemia cells (K562).
Seeding of each cell on a 96 well plate was carried out by adding 100 μl of a cell suspension in which normal human dermal fibroblasts are prepared at 2.5×10^4 cells/ml or human liver cancer cells and human leukemia cells are prepared at 5×10^4 cells/ml. Since the cyclic peptide derivative is added after dissolving it in PBS (−), only PBS (−) was added as a control.

[2] = biological target: acetylcholine esterase (AChE) (Homo sapiens, UniProt P22303); assay: Acetylcholine esterase inhibitory activity test; assay type: biochemical; conditions: 1000 nM; FIG. 11
Chain of acetylcholine esterase (AChE) (P22303 32-614): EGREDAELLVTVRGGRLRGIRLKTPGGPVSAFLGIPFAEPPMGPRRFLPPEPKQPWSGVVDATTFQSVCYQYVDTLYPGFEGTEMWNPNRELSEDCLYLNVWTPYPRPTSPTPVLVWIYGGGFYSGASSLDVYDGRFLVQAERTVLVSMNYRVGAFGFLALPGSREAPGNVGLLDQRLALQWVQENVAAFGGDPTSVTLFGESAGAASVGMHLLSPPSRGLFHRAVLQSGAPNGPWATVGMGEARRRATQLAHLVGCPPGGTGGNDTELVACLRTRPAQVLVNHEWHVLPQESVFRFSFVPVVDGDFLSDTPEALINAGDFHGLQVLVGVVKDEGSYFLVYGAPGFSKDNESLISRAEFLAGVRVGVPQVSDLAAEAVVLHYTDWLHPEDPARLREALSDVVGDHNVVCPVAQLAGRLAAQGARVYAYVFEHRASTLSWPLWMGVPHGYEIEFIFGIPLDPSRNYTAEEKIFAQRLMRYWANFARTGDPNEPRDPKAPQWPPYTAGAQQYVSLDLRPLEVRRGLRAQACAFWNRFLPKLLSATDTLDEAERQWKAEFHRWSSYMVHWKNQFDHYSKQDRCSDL
From the text: Most of existing therapeutic agents for Alzheimer's disease have, as a target mechanism, the inhibitory activity for an acetylcholine esterase which is an enzyme for decomposing acetylcholine as a neurotransmitter. Namely, by inhibiting an acetylcholine esterase, the therapeutic agents for Alzheimer's disease increase an in vivo concentration of acetylcholine.

[3] = tested on: VGF gene; assay: VGF gene expression in culture astrocyte (real time PCR); assay type: cell-based, mouse; conditions: 25 μM; from 8 hours to 24 hours after the addition; p<0.05 vs before the addition; calibrated to GAPDH
Description: By adding the cyclic peptide derivative of 25 μM to an astrocyte of the secondary subculture, the influence on expression of the gene of NGF, GDNF, VFGF-A, BDNF, and VGF as a representative neurotrophic factor was determined over time.
Except that a cell suspension of an astrocyte of the secondary subculture was prepared to have cell concentration of 3×10^5 cells/ml and the time for exposing the astrocyte to the above 25 μM cyclic peptide derivative was set at 0, 1, 2, 4, 8, 12, and 24 hours, the astrocyte was cultured in the same order as above <6>. As a control group, LG-D-MEM (0% FBS) not added with any cyclic peptide derivative was used.
Each astrocyte which has been exposed to the cyclic peptide derivative during each time described above was collected, and then, by using RNeasy Mini Kit (QIAGEN), extraction and purification of total RNA were carried out. The extracted total RNA was quantified by using Nano Photometer (IMPLEN). For the reverse transcription reaction, cDNA was synthesized by reacting 500 ng of total RNA with PrimeScript RT Master Mix (TaKaRa) at 37° C. for 15 minutes using GeneAmp PCR System 9600 (PERKIN ELMER), and the reaction was terminated by heating for 5 seconds at 85° C. […]

[4] = tested on: senescence-accelerated model mouse SAMP8; assay: Damaged area ratio of body hair surface by scanning probe microscope; assay type: in vivo
From the text: As for the apparatus, tapping mode scanning probe microscope (SPM: SPA400, Hitachi High-Tech Science Corporation) was used.
As a sample, body hair in head and neck part of a mouse was collected by plucking from the origin, and the observation was made by using the tapping mode scanning probe microscope described above.

CCC1(C)Oc2cc(ccc2O)C(O)C(NC)C(=O)NC(C(C)C)C(=O)NC1C(=O)NC(CCC(=O)O)C(=O)O (centres unmarked) [cyclic peptide derivative]
inhibitory activity on cell proliferation [1]: a strong inhibitory activity on cell proliferation was observed
AChE inhibitory activity [2]: absolutely no AChE activity was observed
expression of the gene of VGF [3]: increased
damage ratio on a surface of mouse body hair ([4]; SAMP8, oral 2.5 μg/kg/day): lowered to the same level as those of a mouse with normal aging
damage ratio on a surface of mouse body hair ([4]; SAMP8, oral 25 μg/kg/day): lowered to the same level as those of a mouse with normal aging
